Measured values: US20100016211A1, “Treatment of Melanoma With Alpha Thymosin Peptides” (SciClone Pharmaceuticals, Inc., priority 2007, published 2010)
Ends that are not written are not given here.

What was measured:
[1] = system: stage IV metastatic melanoma; test: Phase 2 multi-center open-label study: tumor response (CR, PR, RR); assay type: in vivo, human; details: regimen with TA1 but without IFN alpha vs both IFN alpha and TA1
From the text: (§1) This phase 2 multi-center, open-label study enrolled 488 patients with stage IV metastatic melanoma at 64 European clinical sites. The trial was designed to evaluate different dose levels of Thymosin alpha 1 (TA1). This study was in combination with DTIC chemotherapy, with and without low-dose interferon alpha, as a first-line treatment for malignant melanoma. Most patients enrolled in the trial had liver and other metastases and the remaining patients had lung metastases and skin or lymph node metastases.
(§2) A total of 488 patients (pts) (63% M1; 24% M1b; 13% M1a) were randomised into the study from 64 European sites. Demographic and baseline characteristics are shown in table 1 wherein DIT=DTIC/IFN alpha,/TA1, DT=DTIC/TA1, T=TA1, DI=DTIC/IFN alpha and ECOG PS is a patient's health performance status (PS) according to the Eastern Cooperative Oncology Group (ECOG).

[2] = system: stage IV metastatic melanoma; test: Phase 2 multi-center open-label study: overall survival (OS); assay type: in vivo, human; details: regimen with TA1 but without IFN alpha vs both IFN alpha and TA1
From the text: as §1, §2

[3] = system: stage IV metastatic melanoma; test: Phase 2 multi-center open-label study: progression free survival (PFS); assay type: in vivo, human; details: regimen with TA1 but without IFN alpha vs both IFN alpha and TA1
From the text: as §1, §2

[4] = system: Gp100; test: Melanoma antigen expression in B-16 cells by confocal microscopy; assay type: cell-based; details: B-16 mouse melanoma cells, 24 h treatment, 50 μg/ml; control: +
From the text: (§3) Thymosin alpha 1 was able to up-regulate melanoma-specific antigens melan-A and MART-1 on the cell surface of mouse B-16 melanoma cells.

[5] = Phase 2 multi-center open-label study: adverse events and tolerability; set-up: species or system human; details: in vivo
From the text: as §1, §2

[6] = system: Melan-A/MART-1; test: Melanoma antigen expression in B-16 cells by confocal microscopy; assay type: cell-based, mouse
From the text: as §3

thymosin alpha 1 (Ac-SDAAVDTSSEITTKDLKEKKEVVEEAEN; UniProt P06454 2-29, looked up)
Overall tumor response (in words) [1]: higher overall tumor response | Median survival rate (in words) [2]: higher median survival rate | Progression-free survival (in words) [3]: higher progression-free survival | Gp100 expression [4]: ± ↓ | Serious adverse events attributed to the drug (in words) [5]: no serious adverse events attributed to the drug | Melan-A/MART-1 expression ([6]; B-16 mouse melanoma cells, 24 h treatment, 50 μg/ml, control: +): ++ ↑ | Melanoma-specific antigens melan-A and MART-1 on the cell surface (in words) ([6]; mouse B-16 melanoma cells): up-regulate
